Measured values taken from BindingDB's records for doi:10.1016/j.bmcl.2012.07.104 (University of Lisbon, 2012).
pIC50: −log10 of the molar value.

Target: T1, Cathepsin B-like cysteine protease (Trypanosoma brucei, UniProt Q6R7Z5)
T1 sequence (Q6R7Z5 whole entry): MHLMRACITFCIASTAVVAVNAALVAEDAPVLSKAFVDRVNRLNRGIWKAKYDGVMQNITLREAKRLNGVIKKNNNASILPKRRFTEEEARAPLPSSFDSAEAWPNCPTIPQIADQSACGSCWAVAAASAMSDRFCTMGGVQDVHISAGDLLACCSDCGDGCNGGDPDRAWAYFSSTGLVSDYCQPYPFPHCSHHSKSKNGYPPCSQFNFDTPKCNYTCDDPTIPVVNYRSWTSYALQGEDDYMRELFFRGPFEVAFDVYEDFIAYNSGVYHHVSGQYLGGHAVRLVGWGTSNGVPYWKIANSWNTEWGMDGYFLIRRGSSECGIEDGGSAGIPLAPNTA
Experiment: Inhibition of Trypanosoma brucei CatB

Q: How did the pIC50 turn out when Cn1c2c3ccc(Cl)cc3nc-2c(NC2CCNCC2)c2ccc(Cl)cc21 was run?
A: 4.37

Q: With Cn1c2c3ccccc3nc-2c(NC2CCNCC2)c2ccc(Cl)cc21 as the molecule, how does the pIC50 read?
A: 4.23

Q: How did the pIC50 turn out when Cn1c2c3ccccc3nc-2c(Nc2cccnc2)c2ccccc21 was run?
A: 4.23

Q: How did the pIC50 turn out when CCN(CC)Cc1ccc(Nc2c3nc4ccccc4c-3n(C)c3ccccc23)cc1O was run?
A: 4.23

Q: How did the pIC50 turn out when Cn1c2c3ccccc3nc-2c(NC2CCN(Cc3ccccc3O)CC2)c2ccccc21 was run?
A: 4.59

Q: With CC(C)CN1CCC(Nc2c3nc4ccccc4c-3n(C)c3ccccc23)CC1 as the molecule, how does the pIC50 read?
A: 4.59

Q: With CCN(CC)CCCC(C)Nc1c2nc3ccccc3c-2n(C)c2ccccc12 (stereo not given) as the molecule, how does the pIC50 read?
A: < 4.00

Q: CC(C)NCCCNc1c2nc3ccccc3c-2n(C)c2ccccc12 was tested. Which pIC50 did it give?
A: 4.21

Q: With CN(C)CC(C)(C)CNc1c2nc3ccccc3c-2n(C)c2ccccc12 as the molecule, how does the pIC50 read?
A: 4.21

Q: With CC(CN(C)C)Nc1c2nc3ccccc3c-2n(C)c2ccccc12 (stereo not given) as the molecule, how does the pIC50 read?
A: < 4.00
